{"source": "patent US20040006026A1", "about": "“Avilamycin derivatives” (Combinature Biopharm AG, priority 2001, published 2004)", "key": {"[1]": {"tested_on": "multiresistant Staphylococcus aureus strains", "conditions": "Zähner, 1999; cited from earlier work"}, "[2]": {"tested_on": "Staphylococcus aureus ATCC29213", "assay": "broth microdilution antimicrobial spectrum (NCCLS)", "assay_type": "cell-based", "procedure": "(§1) The antimicrobial spectrum of gavibamycin A3 was determined and compared with that of avilamycin A. In this context, the “broth microdilution” method in accordance with the regulations of the national committee for clinical laboratory standards (NCCLS) was used."}, "[3]": {"tested_on": "Streptococcus pneumoniae ATCC49619", "assay": "broth microdilution antimicrobial spectrum (NCCLS)", "assay_type": "cell-based", "procedure": "as §1"}, "[4]": {"tested_on": "Staphylococcus aureus ATCC6538P", "assay": "broth microdilution antimicrobial spectrum (NCCLS)", "assay_type": "cell-based", "procedure": "as §1"}, "[5]": {"tested_on": "Enterococcus faecalis ATCC29212", "assay": "broth microdilution antimicrobial spectrum (NCCLS)", "assay_type": "cell-based", "procedure": "as §1"}, "[6]": {"tested_on": "Staphylococcus aureus ATCC6538", "assay": "broth microdilution antimicrobial spectrum (NCCLS)", "assay_type": "cell-based", "procedure": "as §1"}, "[7]": {"tested_on": "Staphylococcus aureus Q48-1.2.1", "assay": "broth microdilution antimicrobial spectrum (NCCLS)", "assay_type": "cell-based", "procedure": "as §1"}, "[8]": {"tested_on": "Bacillus subtilis", "assay": "broth microdilution antimicrobial spectrum (NCCLS)", "assay_type": "cell-based", "procedure": "as §1"}, "[9]": {"tested_on": "Enterococcus faecalis H-7-6", "assay": "broth microdilution antimicrobial spectrum (NCCLS)", "assay_type": "cell-based", "procedure": "as §1"}, "[10]": {"assay": "parenteral administration to a patient, tolerance", "assay_type": "in vivo", "procedure": "5 g gavibamycin A3 are dissolved in 1 l water for injection purposes, if necessary using a pharmaceutically well tolerated solubility enhancer, at room temperature, and subsequently adjusted to isotonic conditions for injection purposes by adding water-free glucose.\nIn an average patient, with a body weight of approximately 65 kg, 0.5 mL of this solution is administered, in other words 2.5 mg or approximately […]."}, "[11]": {"assay": "hydrophilia from Rf values / retention factors of TLC and HPLC analysis", "assay_type": "physicochemical", "procedure": "TLC analysis: Streptomyces viridochromogenes Tü57 and the mutants GW-4 and GW4-AM1 were incubated for three days. The cultures were filtered off, and the filtrate was applied to a solid-phase extraction cartridge (SepPakC18, Waters). The cartridge was eluted with a gradient between 10% and 100% methanol in water. Avilamycin derivatives eluted with the fraction that contains 60-70% methanol. After extraction with ethyl acetate and withdrawal of the solvent, the avilamycin derivatives were dissolved in methanol once again and measured by means of TLC on silica gel plates (silica gel 60 F254, Merck), with methylene chloride/methanol (9:1, v/v) as the solvent. Avilamycin derivatives had been detected after treatment with anisaldehyde/H2SO4.\nAn analytical HPLC-UV was carried out on a Hewlett Packard 1090 Liquid Chromatograph with a photodiode array detector and a HP-ODS-Hypersil 5 μm, 200×2 mm column. The sequence of the solutions was as follows: Solution A, 0.04M (NH4)2HPO4 pH 7.0 buffer; Solution B, 100% methanol; a non-linear gradient, with 30-62% of Solution B distributed over a period of 25 min at a flow rate of 0.2 mL/min.\n(§2) Furthermore, gavibamycin A3 was tested with regard to its antibiotic effect. […] The non-chlorinated gavibamycin derivatives also have antibiotic activity."}, "[12]": {"tested_on": "various Staphylococcus aureus strains", "assay": "preliminary tests / first MIC experiments", "assay_type": "cell-based", "procedure": "as §1, §2"}}, "note": "Like-named read-outs stand apart in the source and are kept apart here."}
{"smiles": "COC[C@H]1O[C@@H](OC2OC[C@@H]3O[C@]4(O[C@H]3[C@H]2OC(=O)C(C)C)O[C@H](C)[C@@](O)(C(C)=O)[C@@H]2OCO[C@H]24)[C@@H](OC)[C@@H](O)[C@@H]1O[C@@H]1O[C@H](C)[C@H](OC)[C@H](O[C@H]2C[C@@]3(C)OC4(C[C@@H](O)[C@H](O[C@H]5C[C@@H](O)[C@H](OC(=O)c6c(C)c(Cl)c(O)c(Cl)c6OC)[C@@H](C)O5)[C@@H](C)O4)O[C@@H]3[C@@H](C)O2)[C@H]1O", "note": "(some centres unmarked) [avilamycin A, reference compound]", "values": [{"measurement": "activity against multiresistant Staphylococcus aureus strains", "setting": "[1]", "value": "excellent activity"}, {"measurement": "antibiotic activity", "setting": "[2]", "value": "demonstrate antibiotic activity"}, {"measurement": "antibiotic activity", "setting": "[3]", "value": "demonstrate antibiotic activity"}, {"measurement": "antibiotic activity", "setting": "[4]", "value": "demonstrate antibiotic activity"}, {"measurement": "antibiotic activity", "setting": "[5]", "value": "demonstrate antibiotic activity"}, {"measurement": "antibiotic activity", "setting": "[6]", "value": "demonstrate antibiotic activity"}, {"measurement": "antibiotic activity", "setting": "[7]", "value": "demonstrate antibiotic activity"}, {"measurement": "antibiotic activity", "setting": "[8]", "value": "demonstrate antibiotic activity"}, {"measurement": "antibiotic activity", "setting": "[9]", "value": "demonstrate antibiotic activity"}]}
{"smiles": "COCC1OC(OC2OCC3OC4(OC3C2OC(=O)C(C)C)OC(C)C(O)(C(C)O)C2OCOC24)C(OC)C(O)C1OC1OC(C)C(OC)C(OC2CC3(C)OC4(CC(O)C(OC5CC(O)C(OC(=O)c6c(C)c(Cl)c(O)c(Cl)c6O)C(C)O5)C(C)O4)OC3C(C)O2)C1O", "note": "(centres unmarked) [gavibamycin A3]", "values": [{"measurement": "tolerance of higher dosage", "setting": "[10]; human, in vivo", "value": "toxicologically unproblematic and was well tolerated"}, {"measurement": "tolerance of the administered dose", "setting": "[10]; patient approx. 65 kg, 0.5 mL of 5 g/l solution, 2.5 mg, parenteral", "value": "well tolerated by the patient"}, {"measurement": "hydrophilia compared with avilamycin A", "setting": "[11]", "value": "somewhat more hydrophilic than avilamycin A"}, {"measurement": "hydrophilia compared with avilamycin A", "setting": "[11]; listed as gavibamycin", "value": "much more hydrophilic"}, {"measurement": "antibiotic activity", "setting": "[2]", "value": "demonstrate antibiotic activity"}, {"measurement": "antibiotic activity", "setting": "[3]", "value": "demonstrate antibiotic activity"}, {"measurement": "antibiotic activity", "setting": "[4]", "value": "demonstrate antibiotic activity"}, {"measurement": "antibiotic activity", "setting": "[5]", "value": "demonstrate antibiotic activity"}, {"measurement": "antibiotic activity", "setting": "[6]", "value": "demonstrate antibiotic activity"}, {"measurement": "antibiotic activity", "setting": "[7]", "value": "demonstrate antibiotic activity"}, {"measurement": "antibiotic activity", "setting": "[8]", "value": "demonstrate antibiotic activity"}, {"measurement": "antibiotic activity", "setting": "[9]", "value": "demonstrate antibiotic activity"}, {"measurement": "activity against various Staphylococcus aureus strains compared with avilamycin A", "setting": "[12]", "value": "somewhat stronger activity"}, {"measurement": "activity against various Staphylococcus aureus strains compared with avilamycin A", "setting": "[12]; listed as gavibamycin", "value": "somewhat more active than avilamycin A"}]}
